Results: ChEMBL document CHEMBL1833878, “Cyclodepsipeptides, sesquiterpenoids, and other cytotoxic metabolites from the filamentous fungus Trichothecium sp. (MSX 51320)” (J Nat Prod, 2011)
≈ marks a conversion by molar mass, not a printed value. *1 amine or outer side, *2 acyl side, *3 side chain or, on linkers, in order; H or OH if unused. Where a SMILES comes first, the peptide text is derived from it. [ ]: non-standard residue; d: D form. X1 = CC(C)(O)[C@H](O[*:1])C(=O)[*:2]; dNMeF = CN[C@H](Cc1ccccc1)C(=O)O; Hica(2S) = CC(C)C[C@H](O)C(=O)O; NMeL = CN[C@@H](CC(C)C)C(=O)O; Hiv = CC(C)[C@H](O)C(=O)O; NMeA = CN[C@@H](C)C(=O)O

Columns and labels:
[1] = system: SF-268; test: Cytotoxicity against human SF268 cells; type: functional, cell-based
[2] = system: NCI-H460; test: Cytotoxicity against human NCI-H460 cells; type: functional, cell-based
[3] = system: MCF7; test: Cytotoxicity against human MCF7 cells; type: functional, cell-based
[4] = Cytotoxicity against human HTB-177 cells; type: functional, cell-based
[5] = system: Enterococcus durans; test: Antibacterial activity against Enterococcus durans; type: functional
[6] = system: Staphylococcus epidermidis; test: Antibacterial activity against Staphylococcus epidermidis; type: functional
[7] = system: HT-29; test: Cytotoxicity against human HT-29 cells; type: functional, cell-based
[8] = system: MDA-MB-435; test: Cytotoxicity against human MDA-MB-435 cells; type: functional, cell-based
[9] = Cytotoxicity against human HTB-38 cells; type: functional, cell-based
[10] = Cytotoxicity against human HTB-129 cells; type: functional, cell-based

Row | SMILES | IC50 [1] [µM] | IC50 [2] [µM] | IC50 [3] [µM] | IC50 [4] [µM] | EC50 [1] [µM] | MIC [5] [µg/mL] | EC50 [2] [µM] | EC50 [3] [µM] | MIC [6] [µg/mL] | IC50 [7] [µM] | IC50 [8] [µM] | IC50 [9] [µM] | IC50 [10] [µM]
1 | C/C=C\C(=O)O[C@@H]1CC2O[C@@H]3C=C(C)[C@@H](O)C4OCC2(O)[C@@]1(C)[C@]43C (some centres undefined) | > 10 | > 10 | > 10 | > 10 |  |  |  |  |  |  |  |  | 
2 | CC(C)C[C@@H]1OC(=O)[C@H](C)NC(=O)[C@H](C(C)(C)O)OC(=O)[C@H](C)N(C)C(=O)[C@@H](C)NC(=O)[C@@H](Cc2ccccc2)N(C)C1=O [GUANGOMIDE A] (cyclo(A[Hica(2S)][dNMeF][dA][NMeA][X1])) |  |  |  |  | 15 | 100 (≈ 162 µM) | 15 | 15 | 100 (≈ 162 µM) |  |  |  | 
3 | CC(C)C[C@@H]1OC(=O)[C@H](C(C)C)OC(=O)[C@H](CO)NC(=O)[C@H](C(C)C)NC(=O)[C@H](CC(C)C)N(C)C(=O)[C@H](Cc2ccccc2)NC1=O [TRICHODEPSIPEPTIDE B] (cyclo(F[NMeL]VS[Hiv][Hica(2S)])) | > 10 | > 10 | > 10 | > 10 |  |  |  |  |  | > 10 | > 10 | > 10 | > 10
4 | CC(C)C[C@@H]1NC(=O)[C@H](CC(C)C)N(C)C(=O)[C@H](Cc2ccccc2)NC(=O)[C@H](CC(C)C)OC(=O)[C@H](C(C)C)OC(=O)[C@H](CO)NC1=O [TRICHODEPSIPEPTIDE] (cyclo(F[NMeL]LS[Hiv][Hica(2S)])) | > 10 | > 10 | > 10 | > 10 |  |  |  |  |  | > 10 | > 10 | > 10 | > 10
5 | COC(=O)[C@@H]1O[C@@H](O)C(=O)[C@]2(C(O)/C=C(C)/C=C/C=C(\C)CCC=C(C)C)O[C@H]12 (some centres undefined) [TRICHOTHOSPORON A] | > 10 | > 10 | > 10 | > 10 |  |  |  |  |  |  |  |  | 
